Experiment [1] deals with AS-wt. As to the kind of experiment: SPR binding of aminoglycosides to decoding region A-site model AS-wt. Also on record: species or system E. coli. The note with it: for RNA binding, affinity or specificity for AS-wt (in words): Example 4. As for the experimental part: The RNA binding properties of 100-800 were analyzed using a surface plasmon resonance based assay that was recently developed in these laboratories. This assay allows the determination of both affinity and specificity of small molecule-RNA interactions. For the analysis, the compounds were injected over a matrix containing RNA that was immobilized through a biotin tag and the equilibrium binding values were recorded at various concentrations.
Non-linear curve fitting was then used to determine the values of the dissociation constants (KD). The specificity of binding, i.e. the ability to discriminate between different RNA sequences was evaluated by comparing the binding to the target sequence (AS-wt) and the negative control (AS-U1495A). The ratio of KD(AS-U1495A) to KD(AS-wt) was taken to be a representation of the specificity of the binding event.
For the quantitative measurement of aminoglycoside binding to these sequences, we utilized our recently developed SPR-based assay. Biotinylated derivatives of all sequences were prepared by in vitro transcription in the presence of guanosine 5'-monophosphorothioate followed by alkylation with a biotin iodoacetamide derivative. The RNA conjugates were then immobilized onto streptavidin coated SPR-sensorchips for analysis.
In the same manner as illustrated for paromomycin, a panel of aminoglycosides was screened and the results are compiled in the table of FIGS. 46 and 47. In addition to the naturally occuring aminoglycoside antibiotics, some of the compounds in FIG. 46 are synthetically derived, unnatural aminoglycosides. The number of independent determinations for each dissociation constant ranged from 1-3. […] All data were recorded under near physiological salt conditions (HBS-buffer: 150 mM NaCl, 10 mM HEPES, pH7.4, 3.4 mM EDTA) unless noted otherwise. Data points were taken at concentrations ranging from […]. Below this concentration range, surface transport limitations prevent the attainment of equilibrium.
Plasmon resonance and antimicrobial testing for Example 4. Synthesis of the biotinylated RNA and surface plasmon resonance detected binding experiments were performed as described vida supra. Solution conditions: 150 mM NaCl, 10 mM HEPES (pH 7.4), 3.4 mM EDTA. KD determination from the binding curves.
The fitting routine of the program kaleidagraph was used for all calculations. The starting values for a and b were set to 1 and 0 respectively. The number of KD values used in the fitting was adjusted depending on the observed range of equivalents bound but generally varied from 3 to 4.
General Procedures for SPR Binding Studies done in Example 5. Samples were prepared by serial dilutions from stock solutions in RNase free microfuge tubes (Ambion) and were centrifuged at 14000 rpm for degassing. Unless otherwise noted, all binding studies were carried out using HBS buffer (Pharmacia Biosensor AB) which was used as obtained. All procedures for binding studies were automated as methods using repetitive cycles of sample injection and regeneration. Typically, buffer was injected in the first two cycles to establish a stable baseline value. Samples were injected at a flowrate of […] using either the KINJECT command. All aminoglycoside samples were injected from autoclaved 7 mm plastic vials that were capped with pierceable plastic crimp caps. To minimize carry over, samples were injected in order of increasing concentration. The running buffer was identical to the injection buffer. Expected values for the equilibrium response of one equivalent of analyte were calculated from the relative molecular weight of the analyte and the immobilized RNA ligand in each flowcells and adjusted with a correction factor of 0.76 which arises from the different molar refractive indices of RNA and the analyte. […]
On the technique in general: SPR reads the build-up and loss of mass on a sensor chip optically.

Experiment [2] relates to Escherichia coli (ATCC 25922). As to the kind of experiment: minimum inhibitory concentration, broth dilution technique. It is filed as cell-based. The conditions noted are these: E. coli, liquid culture. An excerpt:
We reasoned that this modification would provide the cleanest test for probing the ionic contribution, since hydrogen bond donor abilities, electronegativity and steric demand are similar for both functional groups. In order to learn how well the model system correlates with in vivo activity, we checked the new compounds for antibacterial activity against three bacterial strains using the disc method (Kirby-Bauer technique). The minimum inhibitory concentrations (MICs) of the compounds were then determined using the broth dilution technique. For antibiotic testing protocols, see: (a) Disk testing protocols: Phillips, I.; Williams, D., in Laboratory Methods in Antimicrobial Chemotherapy, Garrod, L. (ed.) Churchill Livingstone Press: Edinburgh, 1978, pp. 3-30. (b) MIC determination: Waterworth, P. M., in Laboratory Methods in Antimicrobial Chemotherapy, Garrod, L. (ed.) Churchill Livingstone Press: Edinburgh, 1978, pp. 31-40; Barry, A. L. The Antimicrobic Susceptibility Test: Principles and Practice, Lea and Febiger: Philadelphia (1976). (c) Standards: Lorian, V., Antibiotics in Laboratory Medicine (2nd. ed.), Williams and Wilkins: Baltimore, 1986.
FIG. 39A gives the zone diameters measured for the three bacterial strains. The zone diameters measured for the strains with known antibiotics are well within the accepted limits. […] It is worth noting that some testing protocols recommend overnight growth of the cultures, rather than the minimum time required to obtain good growth of the control. MIC values were tested for several of the control antibiotics using overnight growth, and the MIC values observed were 2-4× greater than those observed for 4-6 hour growth.
Minimal Inhibitory Concentration (MIC) testing. E. coli ATCC 25922 was grown in Mueller-Hinton broth (cation-adjusted, BBL Microbiology Systems) to an optical density of approx. 0.5 (absorbance read at 600 nm), then diluted to an OD600 of 0.1. Samples of antibiotic were prepared in Mueller-Hinton broth, typically a series of 2-fold dilutions from […]. […] The absorbance of each sample was read (1=600 nm), and MIC was considered to be the lowest antibiotic concentration at which the absorbance was less than 1% of the no-antibiotic control.
(In general: Dilution methods test growth across graded concentrations, often in twofold steps.)

In experiment [3] the target is Neo16-bd. Briefly: SPR binding of aminoglycosides to Neo16-bd aptamer. The note with it: HBS-buffer; read-out: Kd, Neo16bd. The procedure:
Conditions: 10 mM HEPES (pH 7.4), 0.1 mM EDTA and NaCl as indicated.
The binding of aminoglycosides to RNA is likely to involve substantial ionic contributions and therefore should be strongly influenced by competing buffer ions. […] We studied the salt dependence of neomycin B binding to RBE3, RBE3-neg and Neo16-bd (FIG. 14) by varying the concentration of NaCl included in the injection buffer (10 mM HEPES, pH 7.4, 0.1 mM EDTA). […] This neomycin binding motif was obtained by in vitro selection under conditions of high ionic strength.
To further improve our understanding of specific aminoglycoside recognition, we have also included an artificial aminoglycoside receptor that was evolved in vitro to recognize an aminoglycoside. A number of RNA aptamers for small molecules have been reported in recent years. Among them are aptamers that recognize the aminoglycosides tobramycin, lividomycin and kanamycin.
For comparison, the corresponding values for AS-wt are also included.
General Procedures for SPR Binding Studies done in Example 5. Samples were prepared by serial dilutions from stock solutions in RNase free microfuge tubes (Ambion) and were centrifuged at 14000 rpm for degassing. Unless otherwise noted, all binding studies were carried out using HBS buffer (Pharmacia Biosensor AB) which was used as obtained. All procedures for binding studies were automated as methods using repetitive cycles of sample injection and regeneration. Typically, buffer was injected in the first two cycles to establish a stable baseline value. Samples were injected at a flowrate of […] using either the KINJECT command. All aminoglycoside samples were injected from autoclaved 7 mm plastic vials that were capped with pierceable plastic crimp caps. To minimize carry over, samples were injected in order of increasing concentration. The running buffer was identical to the injection buffer.

Experiment [4] deals with bacterial protein synthesis. The conditions noted are these: cited from earlier work.
The subject of experiment [5] is wt-RRE-II. Briefly: SPR binding of aminoglycosides to wt-RRE-II. Further details: species or system HIV-1. The conditions noted are these: comparison of aminoglycosides. As for the experimental part:
FIGS. 9A and 9B illustrate neomycin B binding to RBE3, RBE3-neg and wt-RRE-II. (A) Semilogarithmic plot. […] Conditions: pH 7.0, 10 mM HEPES, 150 mM NaCl, 0.1 mM EDTA, […].
FIGS. 10A and 10B illustrate paromomycin binding to RBE3, RBE3-neg and wt-RRE-II. (A) Semilogarithmic plot; the dashed line indicates the binding of neomycin B to wt-RRE-II for comparison (B) Scatchard plot. […] Conditions: pH 7.0, 10 mM HEPES, 150 mM NaCl, 0.1 mM EDTA, […].
FIG. 11 illustrates the kinetic stability of wt-RRE-II complexes with neomycin B vs. paromomycin. […] Data points were taken after 1 min of dissociation.
Binding of the aminoglycoside to all three RNA oligonucleotides is observed starting in the low nanomolar concentration range and is non-saturable over the concentration range investigated. […] The high degree of non-specific binding is not surprising considering that aminoglycosides are highly charged polycations that tend to associate nonspecifically with the polyanionic phosphate backbone of RNA. […] Data points corresponding to 0.5 or more equivalents of neomycin B represent equilibrium values and can be analyzed with respect to stoichiometry and affinity of aminoglycoside binding. […] Both sequences bind one molecule of neomycin B with submicromolar affinity followed by weaker association with several additional equivalents of the antibiotic.
Samples were prepared by serial dilutions from stock solutions in RNase free microfuge tubes (Ambion) and were centrifuged at 14000 rpm for degassing. Buffers were filtered through sterile 0.2 &m nylon membranes (Nalgene) under vacuum, except for BIA certified HBS buffer (Pharmacia Biosensor AB) which was used as obtained. All procedures for binding studies were automated as methods using repetitive cycles of sample injection and regeneration. Typically, buffer was injected in the first two cycles to establish a stable baseline value. Samples were injected at a flowrate of 5-10 &L/min using either the KINJECT or the COINJECT command. All aminoglycoside and Rev27 samples were injected from autoclaved 7 mm plastic vials that were capped with pierceable plastic crimp caps. To minimize carry over, samples were injected in order of increasing concentration. The running buffer was identical to the injection buffer, except for the salt dependence study where a single running buffer was used for all injections. Expected values for the equilibrium response of one equivalent of analyte were calculated from the relative molecular weight of the analyte and the immobilized RNA ligand in each flowcells. These values were adjusted by multiplying with a factor of 0.8 or 0.57 for Rev27 or aminoglycosides respectively. These factors arise from the different molar refractive indices of RNA and the analyte and were determined from the Scatchard plot x-axis intercepts of the 1:1 binding isotherms for Rev27 and neomycin B.
Binding Studies with Aminoglycosides.
Neomycin B sulfate (Fluka) was converted to the free base by passing it through Amberlite IRA 400 (OH-- form) and purified by ion exchange chromatography on Dowex 1-X2 100 to remove neomycin C; the purity of neomycin B was verified by NMR in D2 O. Paromomycin sulfate was obtained from Sigma and used as received. Samples were prepared by dilution from 10 mM stock solutions in injection buffer (10 mM HEPES, pH 7.4, 150 mM NaCl, 3.4 mM EDTA). Data points were taken after an association phase of 30 min. A 2 min regeneration pulse of 150 mM Na2 SO4 in injection buffer was used between injections. […]

SMILES strings stand for the structures. “Also recorded” adds a separate entry of the source. *1 amine or outer side, *2 acyl side, *3 side chain or, on linkers, in order; H or OH if unused. Where a SMILES comes first, the peptide text is derived from it. Bridges are numbered along the chain shown (N, C = ends). [ ]: non-standard residue; d: D form. The star is where a group is joined. X2 = NC1=N[C@@H]([C@H](N[*:1])C(=O)[*:2])C[C@H](O)N1; ΔAla(Z-3-ureido) = NC(=O)N/C=C(\N)C(=O)O; X1 = NCC[C@@H](O)[C@H](N)CC(=O)*; Dap = NC[C@H](N)C(=O)O Bounds are passed on as bounds.

In general, Kd refers to the constant that tells how readily two partners part at equilibrium. As to `NCCO[C@H]1[C@@H](O)[C@H](O[C@@H]2[C@@H](O)[C@H](N)C[C@H](N)[C@H]2O[C@H]2O[C@H](CN)[C@@H](O)[C@H](O)[C@H]2N)O[C@@H]1CO` [Compound 500, 3"-O-Ethyl-2-amino ribostamycin], in experiment [1], the “RNA binding, affinity or specificity for AS-wt (in words)” value (from here on “RNA binding, affinity or specificity”) is given as “binding affinity goes up by an order of magnitude but specificity is unaffected; also recorded: significantly lower binding affinities toward the AS wt RNA than neomycin”. For the same compound, the “antibacterial activity / MIC compared with neomycin B (in words)” value in experiment [2] is on record as “very nearly the same anti microbial activity as neomycin B”. Further, the Kd in experiment [3] was less than 0.01 µM.

Turning to `NCCCNCCO[C@H]1[C@@H](O)[C@H](O[C@@H]2[C@@H](O)[C@H](N)C[C@H](N)[C@H]2O[C@H]2O[C@H](CN)[C@@H](O)[C@H](O)[C@H]2N)O[C@@H]1CO` [Compound 600, 3"-O-2-N-(3-propylamino)-ethylamino ribostamycin], the “RNA binding, affinity or specificity” value in experiment [1] is “diminishing returns on the affinity without affecting the specificity; also recorded: significantly lower binding affinities toward the AS wt RNA than neomycin”. For the same compound, the “antibacterial activity / MIC compared with neomycin B (in words)” value in experiment [2] is “very nearly the same anti microbial activity as neomycin B”. For the same compound, in experiment [3], the Kd is less than 0.01 µM.

As to `CN(CC(=O)O)NC(=O)C[C@H](N)C[C@@H](O)CN` [Negamycin], in experiment [4], the “effect on bacterial protein synthesis (in words)” value is reported as “induces miscoding during translation”.

For `[H]/N=C(/N)N[C@H]1[C@H](O)[C@@H](O)[C@H](O[C@@H]2O[C@@H](C)[C@](O)(C=O)[C@H]2O[C@@H]2O[C@@H](CO)[C@H](O)[C@@H](O)[C@@H]2NC)[C@@H](N/C(N)=N\[H])[C@@H]1O` [Streptomycin], the “RNA binding, affinity or specificity” value in experiment [1] was “much reduced binding affinity and no specificity”. Further, the “specificity for AS-wt over negative controls (in words)” value in experiment [1] (Example 5, HBS-buffer) is “does not show any specificity for AS-wt”. Further, the “relative binding affinity for wt-RRE-II (in words)” value in experiment [5] is recorded as “weakest”.

Turning to `NCC[C@@H](O)[C@H](N)CC(=O)N[C@H]1CNC(=O)[C@H]([C@H]2C[C@H](O)NC(N)=N2)NC(=O)/C(=C/NC(N)=O)NC(=O)[C@H](CO)NC(=O)[C@H](CO)NC1=O` [Tuberactinomycin A] (X1-[Dap]SS[ΔAla(Z-3-ureido)][X2]; lactam 1-C), in experiment [4], the “effect on bacterial protein synthesis (in words)” value is “inhibits both initiation and elongation steps of bacterial protein synthesis”.

Source of the values: patent US6120997A, “Nucleic acid binders having an hydroxyamine motif” (The Scripps Research Institute, priority 1998, dated 2000).
